The results in this text go back to the OPERA property sets (Mansouri et al. 2018).

Molecules are shown by their SMILES.

Settings in one data set: not given
The melting point is the temperature of the solid-liquid transition. Consider `O=c1c(O)c(-c2ccc(O)c(O)c2)oc2cc(O)cc(O)c12`, for which the melting point was found to be 316 °C.
Same read-out and setting: the result for `COc1ccc2[nH]cc(CCNC(C)=O)c2c1` reads 117 °C; that for `Cl.Cl.O=C1c2c(O)ccc(O)c2C(=O)c2c(NCCNCCO)ccc(NCCNCCO)c21`, 204 °C.
What is called boiling point is the temperature of boiling at a given pressure. `O=C(O)c1ccco1`: the boiling point is 231 °C and the melting point amounted to 134 °C.
The compound `c1ccc(C(c2ccccc2)c2ccccc2)cc1` showed a boiling point of 359 °C, a log10 vapour pressure (mmHg) of -5.25 and a melting point of 94 °C.
Consider `Nc1cccc2cccc(S(=O)(=O)O)c12`, for which the ready biodegradability result is listed as “not readily biodegradable”.
Regarding `S=C1NC(=S)C(c2ccccc2)(c2ccccc2)N1`, the melting point was determined as 263 °C.
The same measure, in the same setting: the result for `COc1ccc2[nH]c(S(=O)Cc3ncc(C)c(OC)c3C)nc2c1` (stereo not given) reads 156 °C.
`Clc1cc(Cl)c(-c2ccc(Cl)c(Cl)c2)c(Cl)c1` returned a log10 Henry constant (atm·m³/mol) of -4.13.
Take `CCC(=O)Cl`: the boiling point was determined as 80 °C and the melting point was -94 °C.
The matching figures for `OCC(O)c1ccccc1` (stereo not given): 273 °C and 67.5 °C.
Regarding `CCCC(O)CCC`, the boiling point amounted to 156 °C, the log10 vapour pressure (mmHg) was -0.0048 and the melting point is -41.2 °C.
Turning to `O=C(O)CCCCCCCCCCCCCCC(=O)O`, the ready biodegradability result is recorded as “readily biodegradable”.
As a reminder, the logP is a log measure of how a compound divides between an organic and an aqueous phase. Read a low logP as a more hydrophilic compound. `Brc1cc(Br)c(Oc2cc(Br)c(Br)cc2Br)c(Br)c1` had a logP of 7.82.
For `OC[C@H]1OC(O)[C@H](O)[C@@H](O)[C@@H]1O` (stereo not given in full), the melting point was 133 °C.
Same read-out and setting: the result for `Oc1cc(O)cc(Cl)c1` reads 118 °C.
Turning to `CCCC`, the log10 Koa was determined as 1.53, the log10 vapour pressure (mmHg) worked out at 3.26, the melting point is -138 °C and the ready biodegradability entry is given as “readily biodegradable”.
Compound `O=[N+]([O-])c1ccc(C=NO)o1` displayed a melting point of 163 °C.
`N#C/C=C/C#N`: the boiling point was 186 °C and the melting point turned out to be 96.8 °C.
The compound `O=Cc1ccccc1O` registered a boiling point of 197 °C, a log10 vapour pressure (mmHg) of -0.227 and a melting point of -7 °C.
On to `CCC(=O)c1ccccc1`, for which the boiling point is 218 °C, the log10 vapour pressure (mmHg) was -0.77, the melting point turned out to be 18.6 °C and the ready biodegradability result is reported as “readily biodegradable”.
Regarding `CC[N+](C)(CC)CCOC(=O)C(O)(c1cccs1)C1CCCC1.[Br-]` (stereo not given), the melting point came out at 125 °C.
Compound `Clc1ccc(Oc2cccc(Cl)c2Cl)cc1` had a log10 vapour pressure (mmHg) of -3.94.
Take `N#CC(Br)(Br)C(N)=O`: the log10 vapour pressure (mmHg) was -3.05, the melting point stood at 124 °C and the ready biodegradability entry was “not readily biodegradable”.
`FC(Cl)(Cl)C(Cl)(Cl)Cl` showed a boiling point of 135 °C and a melting point of 101 °C.
`O=c1[nH]c2ccccc2n1C1CCN(CCCC(c2ccc(F)cc2)c2ccc(F)cc2)CC1` gave a melting point of 216 °C.
`Cc1ccc2ccc(C)cc2c1` gave a boiling point of 265 °C, a log10 vapour pressure (mmHg) of -2.25 and a melting point of 97 °C.
As to `CCOC(=O)CN`, the boiling point is 149 °C.
Still for that read-out and setting: the result for `COc1ccccc1CO` reads 249 °C.
`COc1ccc(C(C)=O)cc1` returned a boiling point of 258 °C, a log10 vapour pressure (mmHg) of -2.19 and a melting point of 38.5 °C.
In turn, `Clc1ccc(-c2ccccc2)c(Cl)c1` yielded a log10 Henry constant (atm·m³/mol) of -3.55 and a log10 vapour pressure (mmHg) of -2.86.
`CCCCCCCCCCCCC(CCCCCCCCCCC)CCCCCCCCCCCC` registered a melting point of 9.7 °C.
For the compound `C=CCC(=O)OCC`, the boiling point is 119 °C.
`Brc1ccc2c(c1)Oc1ccc(Br)cc1O2`: the log10 vapour pressure (mmHg) is -5.95 and the melting point came out at 193 °C.
For the compound `CCCCOc1ccc(CC(=O)NO)cc1`, the melting point stood at 154 °C.
In the case of `Cc1ccc[nH]1`, the boiling point stood at 147 °C and the melting point was -35.6 °C.
For the compound `CCCCCCC(C)CC` (stereo not given), the boiling point came out at 168 °C and the melting point is -84.8 °C.
The matching figures for `Cc1cc(C)c([N+](=O)[O-])c(C)c1`: 255 °C and 44 °C.
Compound `CCCCCCCCCCCCCC(CCCCCCCCCC)CCCCCCCCCC` returned a melting point of 10.8 °C.
As to `Cc1ccc(Cl)c(C)c1`, the boiling point was determined as 184 °C and the melting point is -32.5 °C.
The compound `OCCN(CCO)c1nc(N2CCCCC2)c2nc(N(CCO)CCO)nc(N3CCCCC3)c2n1` had a melting point of 163 °C.
Compound `CC(=O)C1=CCCCC1` registered a boiling point of 202 °C and a melting point of 73 °C.
For the compound `CCCCCCCCCCCCS`, the boiling point was 274 °C, the log10 vapour pressure (mmHg) was -2.07 and the melting point was -8 °C.
As to `CCCCCCCCCCCC=O`, the log10 vapour pressure (mmHg) is -1.82 and the melting point turned out to be 44.5 °C.
`CC[C@H](C)CBr`: the boiling point was 122 °C.
The same measure, in the same setting: the result for `CCOC(=O)C#N` reads 116 °C.
As to `CC(C)(CCC(=O)O)C(=O)O`, the melting point was 84 °C.
The same measure, in the same setting: the result for `BrCC(Br)(Br)CBr` reads 10.5 °C.
The compound `CCCCCCCC(C)CC` (stereo not given) returned a boiling point of 188 °C and a melting point of -92.9 °C.
Compound `CCCC(=O)CCC(C)C` registered a boiling point of 178 °C.
`CCCCC(=O)OCC(=O)[C@H]1[C@H](C)C[C@H]2[C@@H]3C[C@H](F)C4=CC(=O)C=C[C@]4(C)[C@@]3(F)[C@@H](O)C[C@@]21C` gave a melting point of 195 °C.
Still for that read-out and setting: the result for `O=S1(=O)CCCCO1` reads 13.5 °C.
As for `C=CCCC(=C)C`, the boiling point worked out at 88.1 °C and the melting point was -129 °C.
Compound `O=C(O)/C=C/c1ccccc1C(F)(F)F` came in with a melting point of 206 °C.
On the same count and under the same terms, the result for `CC(=O)O[C@]1(C(C)=O)CC[C@H]2[C@@H]3C[C@H](C)C4=CC(=O)CC[C@]4(C)[C@H]3CC[C@@]21C` reads 206 °C.
`C#CCOc1cc(-n2nc(C(C)(C)C)oc2=O)c(Cl)cc1Cl` registered a log10 vapour pressure (mmHg) of -7.73 and a melting point of 131 °C.
Consider `CCC(C)COC(C)=O` (stereo not given), for which the boiling point came to 140 °C.
On the same count and under the same terms, the result for `C[Si](C)(C)CO` reads 121 °C.
The compound `Sc1ncc[nH]1` returned a melting point of 230 °C.
In turn, `CC(Cl)=CCl` yielded a log10 vapour pressure (mmHg) of 1.96.
`Nc1ccc(S(=O)c2ccc(N)cc2)cc1` gave a melting point of 175 °C.
With `Cc1ccccc1N(CC1CO1)CC1CO1` (stereo not given), the ready biodegradability result is given as “not readily biodegradable”.
On to `O=C(O)c1ccc([N+](=O)[O-])cc1Cl`, for which the melting point was found to be 140 °C.
On the same count and under the same terms, the result for `Cc1c([N+](=O)[O-])cc2c(c1[N+](=O)[O-])C(C)(C)CC2(C)C` reads 132 °C.
`CC1CCCCN1CCCOC(=O)c1ccc(Cl)c(Cl)c1` (stereo not given): the log10 Koc (L/kg) was 3.7.
On to `NCCCC(N)C(=O)O` (stereo not given), for which the melting point turned out to be 140 °C.
Still for that read-out and setting: the result for `CCN(CC)CC#CCOC(=O)C(O)(c1ccccc1)C1CCCCC1.Cl` (stereo not given) reads 130 °C; that for `CCCCCCCCC(O)CCCCCCCC`, 61 °C; that for `COc1ccccc1OC(C)=O`, 31.5 °C.
In turn, `CC1=C(O)C(=O)C(C(C)C)CC1` (stereo not given) displayed a melting point of 83 °C.
Compound `CCOC(Cl)CCl` (stereo not given) had a boiling point of 145 °C.

Still in this data set, the particulars now being: fish.
On to `Brc1cc(Br)c(Oc2cc(Br)c(Br)cc2Br)c(Br)c1`, for which the log10 BCF turned out to be 6.15 and the log10 biotransformation half-life (days) was 2.03.
`Brc1ccc(Oc2ccc(Br)c(Br)c2)cc1Br` showed a log10 BCF of 6.29.
